Measurements as given in PubChem BioAssay AID1259407 (Chemical Carcinogenesis Research Information System (CCRIS), 2018).
The source made the active and inactive calls. The rule behind the calls is not given here.

Tested on: CCRIS mutagenicity, Ames/micronucleus/aberration tests
Test: CCRIS mutagenicity studies
[1] = Test System: AMES SALMONELLA TYPHIMURIUM, Strain/Indicator: TA98, Metabolic Activation: NONE, Method: PREINCUBATION
[2] = Test System: AMES SALMONELLA TYPHIMURIUM, Strain/Indicator: TA100, Metabolic Activation: NONE, Method: PREINCUBATION
[3] = Test System: AMES SALMONELLA TYPHIMURIUM, Strain/Indicator: TA1535, Metabolic Activation: NONE, Method: PREINCUBATION
[4] = Test System: AMES SALMONELLA TYPHIMURIUM, Strain/Indicator: TA98, Metabolic Activation: NONE, Method: STANDARD PLATE
[5] = Test System: AMES SALMONELLA TYPHIMURIUM, Strain/Indicator: TA100, Metabolic Activation: NONE, Method: STANDARD PLATE

What does the source list for `CCCCCOc1cccc(NC(=O)O[C@@H]2CCCC[C@H]2N2CCCC2)c1`?
mutagenic call (Test System: AMES SALMONELLA TYPHIMURIUM, Strain/Indicator: TA98, Metabolic Activation: MOUSE, LIVER, S-9, AROCLOR 1254, Method: PREINCUBATION): inactive; negative; mutagenic call [1]: inactive; negative; mutagenic call (Test System: AMES SALMONELLA TYPHIMURIUM, Strain/Indicator: TA100, Metabolic Activation: MOUSE, LIVER, S-9, AROCLOR 1254, Method: PREINCUBATION): inactive; negative; mutagenic call [2]: inactive; negative; mutagenic call (Test System: AMES SALMONELLA TYPHIMURIUM, Strain/Indicator: TA1535, Metabolic Activation: MOUSE, LIVER, S-9, AROCLOR 1254, Method: PREINCUBATION): inactive; negative; mutagenic call [3]: inactive; negative; mutagenic call (Test System: AMES SALMONELLA TYPHIMURIUM, Strain/Indicator: TA1538, Metabolic Activation: MOUSE, LIVER, S-9, AROCLOR 1254, Method: PREINCUBATION): inactive; negative; mutagenic call (Test System: AMES SALMONELLA TYPHIMURIUM, Strain/Indicator: TA1538, Metabolic Activation: NONE, Method: PREINCUBATION): inactive; negative; mutagenic call (Test System: AMES SALMONELLA TYPHIMURIUM, Strain/Indicator: TA1978, Metabolic Activation: MOUSE, LIVER, S-9, AROCLOR 1254, Method: PREINCUBATION): inactive; negative; mutagenic call (Test System: AMES SALMONELLA TYPHIMURIUM, Strain/Indicator: TA1978, Metabolic Activation: NONE, Method: PREINCUBATION): inactive; negative; mutagenic call (Test System: E. COLI, Strain/Indicator: CM611 UVRA/LEXA, Metabolic Activation: MOUSE, LIVER, S-9, AROCLOR 1254, Method: PREINCUBATION): inactive; negative; mutagenic call (Test System: E. COLI, Strain/Indicator: CM611 UVRA/LEXA, Metabolic Activation: NONE, Method: PREINCUBATION): inactive; negative; mutagenic call (Test System: E. COLI, Strain/Indicator: WP2, Metabolic Activation: MOUSE, LIVER, S-9, AROCLOR 1254, Method: PREINCUBATION): inactive; negative; mutagenic call (Test System: E. COLI, Strain/Indicator: WP2, Metabolic Activation: NONE, Method: PREINCUBATION): inactive; negative; mutagenic call (Test System: E. COLI, Strain/Indicator: WP2 UVRA, Metabolic Activation: MOUSE, LIVER, S-9, AROCLOR 1254, Method: PREINCUBATION): inactive; negative; mutagenic call (Test System: E. COLI, Strain/Indicator: WP2 UVRA, Metabolic Activation: NONE, Method: PREINCUBATION): inactive; negative; mutagenic call (Test System: E. COLI, Strain/Indicator: WP67 UVRA/POLA, Metabolic Activation: MOUSE, LIVER, S-9, AROCLOR 1254, Method: PREINCUBATION): inactive; negative; mutagenic call (Test System: E. COLI, Strain/Indicator: WP67 UVRA/POLA, Metabolic Activation: NONE, Method: PREINCUBATION): inactive; negative

For `O=c1c(Cl)c(Cl)cnn1S(=O)(=O)c1ccc([N+](=O)[O-])cc1`, which mutagenic call [4] is on record?
The mutagenic call was “active; positive”.

What about the mutagenic call (Test System: AMES SALMONELLA TYPHIMURIUM, Strain/Indicator: TA98, Metabolic Activation: RAT, LIVER, S-9, AROCLOR 1254, Method: STANDARD PLATE) of the same molecule?
The mutagenic call was “inactive; negative”.

And the mutagenic call [5]?
The mutagenic call was “active; positive”.

And the mutagenic call (Test System: AMES SALMONELLA TYPHIMURIUM, Strain/Indicator: TA100, Metabolic Activation: RAT, LIVER, S-9, AROCLOR 1254, Method: STANDARD PLATE)?
Its mutagenic call is “active; positive”.

And the mutagenic call (Test System: AMES SALMONELLA TYPHIMURIUM, Strain/Indicator: TA1535, Metabolic Activation: NONE, Method: STANDARD PLATE)?
Its mutagenic call is “inactive; negative”.

And the mutagenic call (Test System: AMES SALMONELLA TYPHIMURIUM, Strain/Indicator: TA1535, Metabolic Activation: RAT, LIVER, S-9, AROCLOR 1254, Method: STANDARD PLATE)?
The mutagenic call was “active; positive”.

And the mutagenic call (Test System: AMES SALMONELLA TYPHIMURIUM, Strain/Indicator: TA1537, Metabolic Activation: NONE, Method: STANDARD PLATE)?
Its mutagenic call is “inactive; negative”.

And the mutagenic call (Test System: AMES SALMONELLA TYPHIMURIUM, Strain/Indicator: TA1537, Metabolic Activation: RAT, LIVER, S-9, AROCLOR 1254, Method: STANDARD PLATE)?
The mutagenic call was “inactive; negative”.

What does the source list for `N#C/C=C/C#N`?
mutagenic call (End Point: IN VITRO CHROMOSOMAL ABERRATIONS, Test System: CHO-LB CELLS, Metabolic Activation: NONE): active; positive; mutagenic call (End Point: IN VITRO CHROMOSOMAL ABERRATIONS, Test System: CHO-LB CELLS, Metabolic Activation: RAT, LIVER, S-9, AROCLOR 1254): inactive; negative; mutagenic call (Test System: AMES SALMONELLA TYPHIMURIUM, Strain/Indicator: TA97, Metabolic Activation: HAMSTER, LIVER, S-9, AROCLOR 1254 (10%), Method: PREINCUBATION): inactive; negative; mutagenic call (Test System: AMES SALMONELLA TYPHIMURIUM, Strain/Indicator: TA97, Metabolic Activation: HAMSTER, LIVER, S-9, AROCLOR 1254 (30%), Method: PREINCUBATION): inactive; negative; mutagenic call (Test System: AMES SALMONELLA TYPHIMURIUM, Strain/Indicator: TA97, Metabolic Activation: NONE, Method: PREINCUBATION): inactive; negative; mutagenic call (Test System: AMES SALMONELLA TYPHIMURIUM, Strain/Indicator: TA97, Metabolic Activation: RAT, LIVER, S-9, AROCLOR 1254 (10 OR 30%), Method: PREINCUBATION): inactive; negative; mutagenic call (Test System: AMES SALMONELLA TYPHIMURIUM, Strain/Indicator: TA98, Metabolic Activation: HAMSTER, LIVER, S-9, AROCLOR 1254 (10%), Method: PREINCUBATION): inactive; negative; mutagenic call (Test System: AMES SALMONELLA TYPHIMURIUM, Strain/Indicator: TA98, Metabolic Activation: HAMSTER, LIVER, S-9, AROCLOR 1254 (30%), Method: PREINCUBATION): inactive; negative; mutagenic call [1]: inactive; negative; mutagenic call (Test System: AMES SALMONELLA TYPHIMURIUM, Strain/Indicator: TA98, Metabolic Activation: RAT, LIVER, S-9, AROCLOR 1254 (10%), Method: PREINCUBATION): inactive; negative; mutagenic call (Test System: AMES SALMONELLA TYPHIMURIUM, Strain/Indicator: TA98, Metabolic Activation: RAT, LIVER, S-9, AROCLOR 1254 (30%), Method: PREINCUBATION): inactive; negative; mutagenic call (Test System: AMES SALMONELLA TYPHIMURIUM, Strain/Indicator: TA98, Metabolic Activation: RAT, LIVER, S-9, FUMARONITRILE (AUTOINDUCTION), Method: PREINCUBATION): inactive; negative; mutagenic call (Test System: AMES SALMONELLA TYPHIMURIUM, Strain/Indicator: TA98, Metabolic Activation: RAT, LIVER, S-9, PHENOBARBITAL, Method: PREINCUBATION): inactive; negative; mutagenic call (Test System: AMES SALMONELLA TYPHIMURIUM, Strain/Indicator: TA100, Metabolic Activation: HAMSTER, LIVER, S-9, AROCLOR 1254 (10%), Method: PREINCUBATION): inactive; negative; mutagenic call (Test System: AMES SALMONELLA TYPHIMURIUM, Strain/Indicator: TA100, Metabolic Activation: HAMSTER, LIVER, S-9, AROCLOR 1254 (30%), Method: PREINCUBATION): inactive; negative; mutagenic call [2]: inactive; negative; mutagenic call (Test System: AMES SALMONELLA TYPHIMURIUM, Strain/Indicator: TA100, Metabolic Activation: RAT, LIVER, S-9, AROCLOR 1254 (10%), Method: PREINCUBATION): inactive; negative; mutagenic call (Test System: AMES SALMONELLA TYPHIMURIUM, Strain/Indicator: TA100, Metabolic Activation: RAT, LIVER, S-9, AROCLOR 1254 (30%), Method: PREINCUBATION): inactive; negative; mutagenic call (Test System: AMES SALMONELLA TYPHIMURIUM, Strain/Indicator: TA100, Metabolic Activation: RAT, LIVER, S-9, FUMARONITRILE (AUTOINDUCTION), Method: PREINCUBATION): inactive; negative; mutagenic call (Test System: AMES SALMONELLA TYPHIMURIUM, Strain/Indicator: TA100, Metabolic Activation: RAT, LIVER, S-9, PHENOBARBITAL, Method: PREINCUBATION): inactive; negative; mutagenic call (Test System: AMES SALMONELLA TYPHIMURIUM, Strain/Indicator: TA1535, Metabolic Activation: HAMSTER, LIVER, S-9, AROCLOR 1254 (10%), Method: PREINCUBATION): inactive; negative; mutagenic call (Test System: AMES SALMONELLA TYPHIMURIUM, Strain/Indicator: TA1535, Metabolic Activation: HAMSTER, LIVER, S-9, AROCLOR 1254 (30%), Method: PREINCUBATION): inactive; negative; mutagenic call [3]: inactive; negative; mutagenic call (Test System: AMES SALMONELLA TYPHIMURIUM, Strain/Indicator: TA1535, Metabolic Activation: RAT, LIVER, S-9, AROCLOR 1254 (10 OR 30%), Method: PREINCUBATION): inactive; negative

With `OC1C[C@]23C=CC=C[C@@]2(C1)O3` (stereo partly drawn) as the molecule, how does the mutagenic call [4] read?
The mutagenic call was “inactive; negative”.

What about the mutagenic call [5] of the same molecule?
The mutagenic call was “inactive; negative”.

What about the mutagenic call (Test System: AMES SALMONELLA TYPHIMURIUM, Strain/Indicator: TM677/8-AZAGUANINE, Metabolic Activation: NONE, Method: STANDARD PLATE) of the same molecule?
Its mutagenic call is “active; positive”.
